# Data published in article PMC6449406, “Classification of the human phox homology (PX) domains based on their phosphoinositide binding specificities” (Nature Communications, 2019).
# Tests used:
# SNX25 PX domain [1] = target: T1, SNX25 PX domain (Homo sapiens, UniProt Q9H3E2); test: 1H-15N HSQC NMR titration; type: binding; settings: pH 7.0, 100 mM NaCl, 298 K; secondary site (Lys734)
# T1 construct: PX domain only, 15N-labelled, from GST fusion in E. coli
# T1 sequence (Q9H3E2 506-628): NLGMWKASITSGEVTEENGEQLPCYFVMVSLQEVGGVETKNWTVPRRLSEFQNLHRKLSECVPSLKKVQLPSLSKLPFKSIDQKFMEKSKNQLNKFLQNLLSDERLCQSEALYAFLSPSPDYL
# SNX1 = target: T2, SNX1 (Homo sapiens, UniProt Q13596); test: biochemical; set-up: ITC, soluble phosphoinositide headgroup analogue titrated into purified PX domain, 1:1 fit; settings: ITC, 20 uM PX domain in cell
# T2 construct: PX domain only, N-terminal GST removed by thrombin, E. coli
# Description: (§1) We next used isothermal titration calorimetry (ITC) to measure the binding of selected PX domains to soluble phosphoinositide headgroup analogues (Supplementary Figures 2, 3; Supplementary Table 4). These experiments quantitatively supported the results of the liposome pelleting assays for all of the PX domains tested. As an orthogonal method of quantitation, we used biolayer interferometry (BLItz) to measure the interactions of PX proteins with different phosphoinositide-containing membranes (Supplementary Figures 4, 5; Supplementary Table 5). In these experiments, liposomes containing a small amount of biotinylated lipids were coupled to streptavidin sensors, and dipped into solutions containing the PX domains at a single concentration of 20 μM. Again, the results of these liposome-binding experiments using BLItz correlated well with both ITC and liposome pelleting assays. The dissociation constants derived from BLItz analyses were generally in agreement with those from ITC and correlated well with the qualitative interactions observed in pelleting assays. As summarized in Supplementary Table 1, many previous reports have described interactions of human PX domain proteins with a variety of different phosphoinositide lipids, as well as other lipids such as phosphatidylserine (PS) and phosphatidic acid (PA) that may promote recruitment to various cellular organelles and membrane domains. Our aim was to perform parallel comparisons of as many human PX domains as possible, using qualitative and quantitative approaches to measure binding to both membrane mimetics and soluble phosphoinositide headgroups. […] Samples were subjected to ultracentrifugation followed by SDS-PAGE and Coomassie staining of the unbound supernatant (S) and bound pellet (P) fractions. b Water-soluble PtdIns3P and PtdIns(3,4)P2 headgroup analogues (500 μM) were titrated into the SGK3 PX domain (20 μM) and measured by ITC. […]
# SNX2 = target: T3, SNX2 (Homo sapiens, UniProt O60749); test: biochemical; set-up: ITC, soluble phosphoinositide headgroup analogue titrated into purified PX domain, 1:1 fit; settings: ITC, 20 uM PX domain in cell
# T3 construct: PX domain only, N-terminal GST removed by thrombin, E. coli
# T3 sequence (O60749 140-269 limits assumed): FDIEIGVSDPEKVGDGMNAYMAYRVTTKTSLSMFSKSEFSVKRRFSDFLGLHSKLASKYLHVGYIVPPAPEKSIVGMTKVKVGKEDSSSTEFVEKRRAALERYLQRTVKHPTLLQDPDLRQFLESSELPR
# Description: as §1
# SNX25 PX domain [2] = target: T1, SNX25 PX domain; test: biochemical; set-up: ITC, soluble phosphoinositide headgroup analogue titrated into purified PX domain, 1:1 fit; settings: ITC, 20 uM PX domain in cell
# Description: as §1
# SNX23 = target: T4, SNX23 (Homo sapiens, UniProt Q96L93); test: biochemical; set-up: ITC titration of soluble phosphoinositide headgroup analogue into PX domain, Kd
# T4 construct: gene KIF16B; PX domain, GST removed
# T4 sequence (Q96L93 1-1317): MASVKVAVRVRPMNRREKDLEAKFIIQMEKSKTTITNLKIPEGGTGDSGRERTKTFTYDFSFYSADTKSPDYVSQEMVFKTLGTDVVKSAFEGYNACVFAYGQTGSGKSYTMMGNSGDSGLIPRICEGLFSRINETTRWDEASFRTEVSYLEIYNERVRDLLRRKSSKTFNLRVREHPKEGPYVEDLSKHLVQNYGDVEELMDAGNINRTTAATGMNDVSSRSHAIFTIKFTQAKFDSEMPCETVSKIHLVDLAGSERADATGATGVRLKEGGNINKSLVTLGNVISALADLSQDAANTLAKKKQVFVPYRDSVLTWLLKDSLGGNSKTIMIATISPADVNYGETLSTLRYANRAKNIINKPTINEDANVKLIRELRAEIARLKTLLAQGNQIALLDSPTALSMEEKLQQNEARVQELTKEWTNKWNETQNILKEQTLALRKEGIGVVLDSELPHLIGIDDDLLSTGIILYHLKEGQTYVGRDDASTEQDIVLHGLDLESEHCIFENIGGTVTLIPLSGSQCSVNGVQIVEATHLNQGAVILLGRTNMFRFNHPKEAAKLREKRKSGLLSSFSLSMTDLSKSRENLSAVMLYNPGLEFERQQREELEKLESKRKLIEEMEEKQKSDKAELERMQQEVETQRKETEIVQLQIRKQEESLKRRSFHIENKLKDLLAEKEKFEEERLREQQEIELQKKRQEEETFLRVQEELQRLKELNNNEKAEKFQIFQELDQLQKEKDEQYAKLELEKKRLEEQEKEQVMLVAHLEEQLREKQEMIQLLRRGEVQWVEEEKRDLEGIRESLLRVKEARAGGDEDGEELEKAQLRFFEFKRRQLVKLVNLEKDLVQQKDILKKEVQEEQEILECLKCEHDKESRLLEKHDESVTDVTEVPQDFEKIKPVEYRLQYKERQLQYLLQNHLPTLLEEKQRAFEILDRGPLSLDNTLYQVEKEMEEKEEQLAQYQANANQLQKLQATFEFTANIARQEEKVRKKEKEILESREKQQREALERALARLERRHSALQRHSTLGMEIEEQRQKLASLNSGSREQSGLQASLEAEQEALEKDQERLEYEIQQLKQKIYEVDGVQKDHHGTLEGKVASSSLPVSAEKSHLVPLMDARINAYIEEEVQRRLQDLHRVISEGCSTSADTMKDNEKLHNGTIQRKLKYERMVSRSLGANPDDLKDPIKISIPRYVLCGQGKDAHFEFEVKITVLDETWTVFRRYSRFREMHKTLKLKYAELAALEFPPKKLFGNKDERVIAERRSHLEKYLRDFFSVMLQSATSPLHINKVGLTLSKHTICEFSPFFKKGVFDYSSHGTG
# Description: We next used isothermal titration calorimetry (ITC) to measure the binding of selected PX domains to soluble phosphoinositide headgroup analogues (Supplementary Figures 2, 3; Supplementary Table 4). These experiments quantitatively supported the results of the liposome pelleting assays for all of the PX domains tested. As an orthogonal method of quantitation, we used biolayer interferometry (BLItz) to measure the interactions of PX proteins with different phosphoinositide-containing membranes (Supplementary Figures 4, 5; Supplementary Table 5). In these experiments, liposomes containing a small amount of biotinylated lipids were coupled to streptavidin sensors, and dipped into solutions containing the PX domains at a single concentration of 20 μM. Again, the results of these liposome-binding experiments using BLItz correlated well with both ITC and liposome pelleting assays. The dissociation constants derived from BLItz analyses were generally in agreement with those from ITC and correlated well with the qualitative interactions observed in pelleting assays. Supplementary Information Supplementary Table 1. Previously reported structures and PtdInsP-binding specificities of mammalian PX proteins. Supplementary Table 2. PX domain constructs used in this study. Supplementary Table 3. […] PX domain binding to phosphoinositides measured by ITC.
# [3] = target: the molecule itself; test: SEC; analytical gel filtration, Superdex 200 10/300, 50 mM Tris (pH 8.0), 100 mM NaCl, 2 mM DTT; 100 µl of SNX15 PX domain at 500 µM, 0.5 ml/min, 4 °C; mass from a calibration curve of standards
molecule,measurement,setting,value
"CCCCCCCC(=O)OC[C@H](COP(=O)(O)O[C@H]1[C@H](O)[C@@H](O)[C@H](OP(=O)(O)O)[C@@H](OP(=O)(O)O)[C@H]1O)OC(=O)CCCCCCC [PtdIns(3,4)P2 headgroup analogue]",1H-15N HSQC NMR titration,SNX25 PX domain [1],significant chemical shift perturbations were observed with di- and tri-phosphorylated phosphoinositides (PIP2 and PIP3)
"CCCCCCCC(=O)OC[C@H](COP(=O)(O)O[C@H]1[C@H](O)[C@@H](OP(=O)(O)O)[C@H](OP(=O)(O)O)[C@@H](OP(=O)(O)O)[C@H]1O)OC(=O)CCCCCCC [PtdIns(3,4,5)P3 headgroup analogue]",1H-15N HSQC NMR titration,SNX25 PX domain [1],significant chemical shift perturbations were observed with di- and tri-phosphorylated phosphoinositides (PIP2 and PIP3)
"CCCCCCCC(=O)OC[C@H](COP(=O)(O)O[C@@H]1[C@H](O)[C@H](OP(=O)(O)O)[C@@H](O)[C@H](OP(=O)(O)O)[C@H]1O)OC(=O)CCCCCCC [PtdIns(3,5)P2 headgroup analogue]",1H-15N HSQC NMR titration,SNX25 PX domain [1],significant chemical shift perturbations were observed with di- and tri-phosphorylated phosphoinositides (PIP2 and PIP3)
same,Kd,SNX1,42 µM
same,Kd,SNX2,35.8 µM
same,Kd,SNX25 PX domain [2],12.1 µM
same,Kd,SNX23,11.5 µM
"CCCCCCCC(=O)OC[C@H](COP(=O)(O)O[C@@H]1[C@H](O)[C@H](O)[C@@H](OP(=O)(O)O)[C@H](OP(=O)(O)O)[C@H]1O)OC(=O)CCCCCCC [PtdIns(4,5)P2 headgroup analogue]",1H-15N HSQC NMR titration,SNX25 PX domain [1],significant chemical shift perturbations were observed with di- and tri-phosphorylated phosphoinositides (PIP2 and PIP3)
"SNX15 PX domain (domain or fragment, human, source: E. coli BL21(DE3)/pLysS, purified (glutathione-Sepharose, thrombin cleavage, size exclusion chromatography); not shown: GST, N-terminal, cleaved) MSRQAKDDFLRHYTVSDPRTHPKGYTEYKVTAQFISKKDPEDVKEVVVWKRYSDFRKLHGDLAYTHRNLFRRLEEFPAFPRAQVFGRFEASVIEERRKGAEDLLRFTVHIPALNNSPQLKEFFRGG",stoichiometry N,[3],2
